{"source": "BindingDB's records for doi:10.1021/jm00067a004", "about": "(Glaxo Group Research, 1993)", "note": "“And” between values parts separate entries of the source, which are not always exact repeats. Equal entries are not always repeated.", "data": [{"assay": "In vitro agonist activity at kappa opioid receptor in rabbit vas deferens.", "units": {"IC50": "nM"}, "values": [{"smiles": "COC(=O)/C=C1\\CCN(CC2CN(C(=O)OC)CCN2C(=O)Cc2ccc(Cl)c(Cl)c2)C1", "note": "(centres undefined) [4-[2-(3,4-Dichloro-phenyl)-acetyl]-3-(3-methoxycarbonylmethylene-pyrrolidin-1-ylmethyl)-piperazine-1-carboxylic acid methyl ester]", "IC50": 4}, {"smiles": "CCCOC(=O)N1CCN(C(=O)Cc2ccc(Cl)c(Cl)c2)C(CN2CCCC2)C1", "note": "(centres undefined) [4-[2-(3,4-Dichloro-phenyl)-acetyl]-3-pyrrolidin-1-ylmethyl-piperazine-1-carboxylic acid propyl ester]", "IC50": 300}, {"smiles": "COC(=O)N1CCN(C(=O)Cc2ccc(Cl)c(Cl)c2)C(CN2CCC(O)C2)C1", "note": "(centres undefined) [4-[2-(3,4-Dichloro-phenyl)-acetyl]-3-(3-hydroxy-pyrrolidin-1-ylmethyl)-piperazine-1-carboxylic acid methyl ester]", "IC50": 0.34}, {"smiles": "COC(=O)N1CCN(C(=O)Cc2ccc(Cl)c(Cl)c2)C(CN2CC=CCC2)C1", "note": "(centres undefined) [4-[2-(3,4-Dichloro-phenyl)-acetyl]-3-(3,6-dihydro-2H-pyridin-1-ylmethyl)-piperazine-1-carboxylic acid methyl ester]", "IC50": 0.04}, {"smiles": "CCC(=O)N1CCN(C(=O)Cc2ccc(Cl)c(Cl)c2)C(CN2CCCC2)C1", "note": "(centres undefined) [1-{4-[2-(3,4-Dichloro-phenyl)-acetyl]-3-pyrrolidin-1-ylmethyl-piperazin-1-yl}-propan-1-one]", "IC50": 6.9}, {"smiles": "C=CC(=O)N1CCN(C(=O)Cc2ccc(Cl)c(Cl)c2)C(CN2CCCC2)C1", "note": "(centres undefined) [1-{4-[2-(3,4-Dichloro-phenyl)-acetyl]-3-pyrrolidin-1-ylmethyl-piperazin-1-yl}-propenone]", "IC50": 0.42}, {"smiles": "CCCC(=O)N1CCN(C(=O)Cc2ccc(Cl)c(Cl)c2)C(CN2CCCC2)C1", "note": "(centres undefined) [1-{4-[2-(3,4-Dichloro-phenyl)-acetyl]-3-pyrrolidin-1-ylmethyl-piperazin-1-yl}-butan-1-one]", "IC50": 60}, {"smiles": "O=C(Cc1ccccc1)N1CCN(C(=O)Cc2ccc(Cl)c(Cl)c2)C(CN2CCCC2)C1", "note": "(centres undefined) [2-(3,4-Dichloro-phenyl)-1-(4-phenylacetyl-2-pyrrolidin-1-ylmethyl-piperazin-1-yl)-ethanone]", "IC50": "> 10000"}, {"smiles": "O=C(OCc1ccccc1)N1CCN(C(=O)Cc2ccc(Cl)c(Cl)c2)C(CN2CCCC2)C1", "note": "(centres undefined) [4-[2-(3,4-Dichloro-phenyl)-acetyl]-3-pyrrolidin-1-ylmethyl-piperazine-1-carboxylic acid benzyl ester]", "IC50": 450}, {"smiles": "O=C(c1ccccc1)N1CCN(C(=O)Cc2ccc(Cl)c(Cl)c2)C(CN2CCCC2)C1", "note": "(centres undefined) [1-(4-Benzoyl-2-pyrrolidin-1-ylmethyl-piperazin-1-yl)-2-(3,4-dichloro-phenyl)-ethanone]", "IC50": "> 10000"}, {"smiles": "O=C(Oc1ccccc1)N1CCN(C(=O)Cc2ccc(Cl)c(Cl)c2)C(CN2CCCC2)C1", "note": "(centres undefined) [4-[2-(3,4-Dichloro-phenyl)-acetyl]-3-pyrrolidin-1-ylmethyl-piperazine-1-carboxylic acid phenyl ester]", "IC50": "> 10000"}, {"smiles": "COCC(=O)N1CCN(C(=O)Cc2ccc(Cl)c(Cl)c2)C(CN2CCCC2)C1", "note": "(centres undefined) [2-(3,4-Dichloro-phenyl)-1-[4-(2-methoxy-acetyl)-2-pyrrolidin-1-ylmethyl-piperazin-1-yl]-ethanone]", "IC50": 2900}, {"smiles": "CC(=O)N1CCN(C(=O)Cc2ccc(Cl)c(Cl)c2)C(CN2CCCC2)C1", "note": "(centres undefined) [1-(4-Acetyl-2-pyrrolidin-1-ylmethyl-piperazin-1-yl)-2-(3,4-dichloro-phenyl)-ethanone]", "IC50": 10}, {"smiles": "CCOC(=O)N1CCN(C(=O)Cc2ccc(Cl)c(Cl)c2)C(CN2CCCC2)C1", "note": "(centres undefined) [4-[2-(3,4-Dichloro-phenyl)-acetyl]-3-pyrrolidin-1-ylmethyl-piperazine-1-carboxylic acid ethyl ester]", "IC50": 3.5}, {"smiles": "COC(=O)N1CCN(C(=O)Cc2ccc(Cl)c(Cl)c2)C(CN(C)C)C1", "note": "(centres undefined) [4-[2-(3,4-Dichloro-phenyl)-acetyl]-3-dimethylaminomethyl-piperazine-1-carboxylic acid methyl ester]", "IC50": 1.2}, {"smiles": "COC(=O)/C=C1/CCN(CC2CN(C(=O)OC)CCN2C(=O)Cc2ccc(Cl)c(Cl)c2)C1", "note": "(centres undefined) [4-[2-(3,4-Dichloro-phenyl)-acetyl]-3-(3-methoxycarbonylmethylene-pyrrolidin-1-ylmethyl)-piperazine-1-carboxylic acid methyl ester]", "IC50": 0.28}, {"smiles": "COC(=O)N1CCN(C(=O)Cc2ccc(Cl)c(Cl)c2)C(CN2CCC(=O)C2)C1", "note": "(centres undefined) [4-[2-(3,4-Dichloro-phenyl)-acetyl]-3-(3-oxo-pyrrolidin-1-ylmethyl)-piperazine-1-carboxylic acid methyl ester]", "IC50": 0.34}, {"smiles": "O=CN1CCN(C(=O)Cc2ccc(Cl)c(Cl)c2)C(CN2CCCC2)C1", "note": "(centres undefined) [4-[2-(3,4-Dichloro-phenyl)-acetyl]-3-pyrrolidin-1-ylmethyl-piperazine-1-carbaldehyde]", "IC50": 15}]}, {"assay": "In vitro agonist activity at kappa opioid receptor in rabbit vas deferens.", "remark": "another data set of the same source", "values": [{"smiles": "COC(=O)N1CCN(C(=O)Cc2ccc(Cl)c(Cl)c2)C(CN2CCCC2)C1", "note": "(centres undefined) [GR-89696]", "IC50": "0.041 nM and 0.018 nM"}]}]}
